In series [1] the test system is Aβ42 production. Put plainly: Sandwich ELISA measurement of Aβ42 levels in supernatant of treated N2a-APP695 cells. Format: cell-based, Mouse. The settings on record: for EC50: Mus musculus, 18h incubation, ELISA assay, read-out: EC50 (µM) at inducing Aβ42 production. The procedure: (§1) Mouse neuroblastoma cells (N2a cells) or N2a-APP695 cells (N2a cell line stably transfected with APP695, an amyloid precursor protein) were cultured in an essential medium composed of Dulbecco's minimal essential medium (DMEM) and of OptiMEM® (1:1, v/v) (Gibco®) containing 0.2 mg/mL Geniticin (Geneticin® Selective Antibiotic, Gibco®) and 5 % fetal bovine serum (FBS, Gibco®, EU approved origin) in a humidified, 5% CO2 incubator at 37°C. Routinely, cells were split without use of Trypsin every 4/5 days. They were first rinsed with PBS (Gibco) and detached from the plate bottom using 4 mL Versene (Gibco) at room temperature for 3-4 min. 8 mL of fresh medium were added to the cell suspension, and the mix was centrifuged for 3 min at 1,000 rpm. The cell pellet was resuspended in fresh medium before seeding (1/10 dilution) in new flasks.
The N2a-APP695 cells were seeded at 10.000 cells/well in a 96 well plate with modified media (0.5% FBS) and incubated overnight. Cells were treated with fresh media comprising different compounds according to the invention (equal quantity of DMSO sold by Sigma®). They were then incubated for 18h in a humidified, 5% CO2 incubator.
Purines according to the invention were added at various concentrations to N2a-APP695.
The plate was finally centrifuged to remove cell fragments before collecting supernatant samples for amyloids levels determination.
Then, Aβ38, Aβ40 and Aβ42 levels were measured in a sandwich ELISA (Enzyme-Linked ImmunoSorbent Assay) using a combination of monoclonal antibody 6E10 (mAb 6E10) (sold by Covance® under the reference SIG-39320) and biotinylated polyclonal Aβ38, Aβ40 or Aβ42 antibodies (provided by Dr. P.D. Mehta, IBR, Staten Island, USA).
A solution of 100 µl mAb 6E10 diluted in carbonate-bicarbonate buffer, pH 9.6, was coated in the wells of microtiter plates (Maxisorp™ sold by Nunc®) and incubated at 4°C overnight. The plates were then washed with PBST (PBS tablets sold by Gibco®) containing 0.05% Tween-20 (Sigma®), and blocked for 1 h with 1% BSA (Sigma®) in PBST (PBS tablets sold by Gibco®) containing 0.05 Tween-20 (Sigma®) to avoid nonspecific binding.
Following a washing step, samples were added and incubated for 2 hours at room temperature (RT) and then at 4°C overnight. Plates were then washed before incubation with biotinylated polyclonal antibody diluted in PBST (PBS tablets sold by Gibco®) containing 0.05 Tween-20 (Sigma®) + 0.5% BSA at room temperature for 75 minutes.
After a washing step, streptavidin-horseradish peroxidase conjugate (Streptavidin poly-HRP, Thermo Scientific Pierce®), diluted in PBS + 1% BSA, was added and incubation was carried out for 45 min at room temperature. After washing, 100 µl of o-phenylenediamine dihydrochloride (OPD tablets, Invitrogen®) diluted in citrate buffer pH 5.0 were added. The reaction was stopped after 15 min with the addition of 100 µl 1 N sulfuric acid.
A range of known concentrations of Aβ38, Aβ40 and Aβ42, ranging from 0.01 to 10 ng/mL for Aβ38 and Aβ42, and ranging from 0.001 to 10 ng/mL for Aβ40, were use as a reference scale to determine the concentrations of Aβ38, Aβ40 and Aβ42 obtained.
(§2) The optical density was finally measured at 490 nm in a microELISA reader (sold by BioTek Instrument, reference E1 800, Gen 5 software).
The EC50 of the molecules tested were thus calculated.
On the technique in general: An ELISA detects its analyte on a solid surface through an enzyme-linked reagent.

The test system of series [2] is Aβ40. Description: Sandwich ELISA measurement of Aβ40 levels in supernatant of treated N2a-APP695 cells. Format: cell-based, Mouse. As for the experimental part: as §1, with “8 mL of fresh medium were added to the cell suspension, and the mix was centrifuged for 3 min at 1,000 rpm. The cell pellet was resuspended in fresh medium before seeding (1/10 dilution) in new flasks.” left out
(§3) The N2a-APP695 cells were seeded at 10.000 cells/well in a 96 well plate with modified media (0.5% FBS) and incubated overnight. Cells were treated with fresh media comprising different compounds according to the invention (equal quantity of DMSO sold by Sigma®). […]
(§4) Then, Aβ38, Aβ40 and Aβ42 levels were measured in a sandwich ELISA (Enzyme-Linked ImmunoSorbent Assay) using a combination of monoclonal antibody 6E10 (mAb 6E10) (sold by Covance® under the reference SIG-39320) and biotinylated polyclonal Aβ38, Aβ40 or Aβ42 antibodies (provided by Dr. P.D. Mehta, IBR, Staten Island, USA). […]
as §2

The subject of series [3] is Aβ38. Description: Sandwich ELISA measurement of Aβ38 levels in supernatant of treated N2a-APP695 cells. The class given is cell-based, Mouse. The procedure: as §1, with “8 mL of fresh medium were added to the cell suspension, and the mix was centrifuged for 3 min at 1,000 rpm. The cell pellet was resuspended in fresh medium before seeding (1/10 dilution) in new flasks.” left out
as §3, §4, §2

For series [4], the system named is N2a-APP695 cells. Description: MTS cell viability assay in the same wells as the ELISA. As to conditions: for Toxicity / Toxicity (concentration in brackets): MTS assay, N2a-APP695 cells; for Toxicity: class symbol; for Toxicity (concentration in brackets): concentration above which toxic.
Experimental: To measure cell viability, the MTS assay (CellTiter 96® AQueous One Solution Cell Proliferation Assay, Promega) was used in the same wells as the capture ELISA assay. 20µl of MTS reagent (3-(4,5-dimethylthiazol-2-yl)-5-(3-carboxymethoxyphenyl)-2-(4-sulfophenyl)-2H-tetrazolium) was added in each well containing 100µl of media and incubation was then proceeded for 3 hours (37°C, 5% CO2 and 95% humidity). Measurements were made on OD 490Δ630 nm (excitation and emission wavelengths) using a microELISA reader (BioTek Instrument, El 800, Gen 5 software).
The test system of series [5] is Aβ38. Description: Effect of γ-secretase inhibitors/modulator on Aβ38 level in Aftin-treated cells. The class given is cell-based. As to conditions: for pIC50: γ-secretase inhibitor, Aftin-treated cells. From the text: (§5) To investigate the importance of γ-secretases in the effects of Aftins according to the invention, two potent pharmacological inhibitors of γ-secretases, DAPT (N-[(3,5-Difluorophenyl)acetyl]-L-alanyl-2-phenyl]glycine-1,1-dimethylethyl ester) and BMS 299897 were used.

The test system of series [6] is Aβ40. Put plainly: Effect of γ-secretase inhibitors on Aβ40 level in Aftin-treated cells. The class given is cell-based. As to conditions: γ-secretase inhibitor.
From the text: as §5

Series [7] has as its system Aβ42. Description: Effect of γ-secretase inhibitors/modulator on Aftin-induced production of Aβ42. The class given is cell-based. As to conditions: for pIC50: γ-secretase inhibitor, Aftin-induced production.
From the text: as §5

The test system of series [8] is γ-secretases. The settings on record: read-out: reported IC50 values on γ-secretases; cited from earlier work.
The mark [9] stands for this setting: N2a-APP695 cells, 18 hours, dose-dependent, Figure 3.
The mark [10] stands for this setting: N2a-APP695 cells, 1 µM added simultaneously with increasing concentrations of Aftin-5.

SMILES strings stand for the structures. pIC50: −log10 of the molar value.

Consider `CC[C@H](CO)Nc1nc(N(C)c2ccccc2)c2ncn(C(C)C)c2n1` [Aftin-5, (2R)-2-[[9-isopropyl-6-(N-methylanilino)purin-2-yl]amino]butan-1-ol], for which the EC50 (usually the concentration giving half of the maximal effect) in series [1] (N2a-APP695 cells) amounted to 10.6 µM. Besides, the “increase of the levels of Aβ42 production” value in series [1] (dose-response curves, Figure 1, 18 hours, up to) is on record as more than 900%. The “levels of Aβ40, maximum increase” value in series [2] (dose-response curves, Figure 1, 18 hours) was not above 40%. Further, the “levels of Aβ38, decrease” value in series [3] (dose-response, in parallel to the increase of Aβ42) is on record as more than 70%. Also, the Toxicity result in series [4] is recorded as “- ("-" means that the tested compound is non toxic with a concentration higher than 100 µM)”. Also, the “cytotoxic effects on cells” value in series [4] (highest concentration tested (150 µM) or longest exposure (5 days)) is listed as “did not show any cytotoxic effects”.

Consider `C[C@H](NC(=O)Cc1cc(F)cc(F)c1)C(=O)N[C@H](C(=O)OC(C)(C)C)c1ccccc1` [DAPT], for which the pIC50 – broadly, the negative decadic logarithm of the IC50, by convention in mol/L – was 6.95 in series [5], 7.21 in series [6], 7.37 in series [7] and 7.25 to 7.60 in series [8].

Take `CCN(CC)c1ccc(C)c(Nc2nc(-c3ccc(-n4cnc(C)c4)cc3)cs2)c1` ['Torrey Pines' compound, reference compound]: the Aβ42 production entry in series [1] (setting [9]) is “down-regulates”. In addition, the Aβ40 production entry in series [2] (setting [9]) was “down-regulates”. Also, the Aβ38 level result in series [3] (setting [9]) was “up-regulation”. Further, in series [5] (setting [10]), the Aβ38 regulation entry was “up-regulation”. Further, in series [7] (setting [10]), the Aβ42 regulation result was “down-regulation”. For the same compound, the “effect on Aftin-5 induced Aβ42 up-regulation and Aβ38 down-regulation” value in series [7] (N2a-APP695 cells, added 1 h prior to 100 µM Aftin-5, dose dependent, Figure 4) is reported as “inhibition of Aftin-5 effect”.

On to `C[C@H](c1ccc(F)cc1CCCC(=O)O)N(c1cc(F)ccc1F)S(=O)(=O)c1ccc(Cl)cc1` [BMS 299897], for which the pIC50 in series [5] was 7.06; in series [6], 7.25; in series [7], 7.54; in series [8] it was 6.52 to 8.10.

For the compound `CC[C@H](CO)Nc1nc(N(C)Cc2ccccc2)c2ncn(C(C)C)c2n1` [Aftin-4, N6-methyl-roscovitine], the concentration giving a half-maximal response (EC50) in series [1] (N2a-APP695 cells) was determined as 10 µM. In series [4], the Toxicity entry was “+” and the “Toxicity (concentration in brackets)” value was more than 31 µM.

For the compound `CCCN(Cc1ccccc1)c1nc(N[C@H](CC)CO)nc2c1ncn2C(C)C` [Compound 20], the 50% effective concentration (EC50) in series [1] (N2a-APP695 cells) was 1.35 µM. Further, in series [4], the Toxicity entry was “+” and the “Toxicity (concentration in brackets)” value was more than 12 µM.

Take `CC[C@H](CO)Nc1nc(N(C)Cc2ccc(C(=O)NCCOCCOCCOCCOCCOCCN)cc2)c2ncn(C(C)C)c2n1` [Compound 30]: the EC50 in series [1] (N2a-APP695 cells) is more than 100 µM. For the same compound, the Toxicity entry in series [4] is reported as “- ("-" means that the tested compound is non toxic with a concentration higher than 100 µM)”.

As for `CC[C@H](CO)Nc1nc(N2CCc3ccccc32)c2ncn(C(C)C)c2n1` [Compound 19], in series [1] (N2a-APP695 cells), the EC50 was found to be 8 µM. In addition, in series [4], the Toxicity entry is reported as “+” and the “Toxicity (concentration in brackets)” value is recorded as more than 31 µM.

Turning to `CC(C)n1cnc2c(OCc3ccccc3)nc(OCc3ccccc3)nc21` [Compound 46, 9-Iso-propyl-2,6-dibenzyloxypurine], the EC50 in series [1] (N2a-APP695 cells) came to 3.5 µM. In series [4], the Toxicity entry was “+” and the “Toxicity (concentration in brackets)” value is more than 12 µM.

Source of the values: patent EP2664619B1, “Purine derivatives as tools for screening anti-Alzheimer compounds” (Manros Therapeutics, priority 2012, dated 2013).
